# Reference: patent US4587045A, “Intermediates for preparing octapeptide vasopressin antagonists” (SmithKline Beckman Corporation, priority 1985, dated 1986)
# *1 amine or outer side, *2 acyl side, *3 side chain or, on linkers, in order; H or OH if unused. Where a SMILES comes first, the peptide text is derived from it. Bridges are numbered along the chain shown (N, C = ends). Where no end group is shown, it is not given here. [ ]: non-standard residue; d: D form. The star is where a group is joined. X1 = O=C(CC1(S[*:2])CCCCC1)[*:1]; Abu = CC[C@H](N)C(=O)O; NHPr = CCCN*
# Experiments:
# [1] = biological target: T1, vasopressin receptors (^3 H-vasopressin binding) (Sus scrofa, UniProt P32307); experiment: Binding assay, ^3 H-vasopressin, hog kidney membranes; design: species or system Pig; details: for Kb: KB = IC50/(1+L/KD), ^3 H-vasopressin binding, hog kidney membranes, read-out: anti-ADH activity in vitro (Pig) KB
# T1 construct: average KD value determined on 3 preparations of hog kidney membranes; from tissue; host or cells: hog kidney medullary membranes
# T1 sequence (P32307 whole entry): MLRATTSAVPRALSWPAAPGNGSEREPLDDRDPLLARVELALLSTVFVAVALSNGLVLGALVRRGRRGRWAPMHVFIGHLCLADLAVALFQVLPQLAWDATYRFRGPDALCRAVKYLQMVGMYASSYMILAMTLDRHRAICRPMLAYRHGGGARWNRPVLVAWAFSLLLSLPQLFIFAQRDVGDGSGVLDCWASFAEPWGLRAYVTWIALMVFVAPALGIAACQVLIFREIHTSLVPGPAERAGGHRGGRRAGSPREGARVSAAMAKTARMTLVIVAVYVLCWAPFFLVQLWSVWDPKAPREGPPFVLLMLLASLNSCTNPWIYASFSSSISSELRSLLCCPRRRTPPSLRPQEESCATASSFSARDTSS
# Protocol: (§1) Details of the in vitro protocols are in F. L. Stassen et al., J. of Pharm. Exp. Ther. 233, 50-54 (1982) but the calculations of cyclase activity and binding potential at the receptor site are as follows:
# Test Procedure for Binding Assay:
# In each experiment, the amount of ^3 H-vasopressin bound in the absence and in the presence of an excess of vasopressin (7.5×10^-6 M) is measured in triplicate. These values represent total and non-specific binding, respectively. The KB of a compound is derived from the equation for competitive inhibition: KB =IC50 /(1+L/KD), where IC50 is the concentration required for 50% inhibition of specific ^3 H-vasopressin binding, L is the concentration of the ligand, and KD is the dissociation constant of ^3 H-vasopressin (KD =3.6×10^-9 M; 1 SD=0.4×10^-9 M). This is the average KD value determined on 3 preparations of hog kidney membranes.
# [2] = biological target: vascular pressor sites (V1 -receptors) (Rattus norvegicus, UniProt P30560)
# vascular pressor sites (V1 -receptors), sequence (P30560 whole entry): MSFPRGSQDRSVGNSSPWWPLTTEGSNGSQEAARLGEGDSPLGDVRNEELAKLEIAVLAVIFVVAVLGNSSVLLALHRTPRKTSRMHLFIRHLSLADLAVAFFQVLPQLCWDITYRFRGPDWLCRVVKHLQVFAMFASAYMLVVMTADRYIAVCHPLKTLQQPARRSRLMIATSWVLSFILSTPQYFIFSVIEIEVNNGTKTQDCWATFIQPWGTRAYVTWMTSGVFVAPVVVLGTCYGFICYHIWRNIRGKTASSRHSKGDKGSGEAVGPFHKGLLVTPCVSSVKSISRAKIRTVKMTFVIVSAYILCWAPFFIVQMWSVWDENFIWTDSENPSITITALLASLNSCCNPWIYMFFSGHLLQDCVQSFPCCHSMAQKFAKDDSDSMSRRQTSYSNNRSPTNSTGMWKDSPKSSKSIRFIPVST
# Source text: The second group of vasopressin receptor sites are the vascular pressor sites (V1 -receptors) located within the cardiovascular system itself.
# [3] = biological target: T2, vasopressin receptors (V2 -receptors) (Rattus norvegicus, UniProt Q00788); experiment: Hydropenic rat protocol (anti-ADH activity in vivo); details: estimated dose of peptide delivered ip which reduces Uosm from hydropenic levels to 300 mOsmoles/kg H2O
# T2 construct: in vivo, in the hydropenic rat or the hydropenic monkey; from tissue; host or cells: whole animal (male hydropenic rat); renal receptors in situ
# T2 sequence (Q00788 whole entry): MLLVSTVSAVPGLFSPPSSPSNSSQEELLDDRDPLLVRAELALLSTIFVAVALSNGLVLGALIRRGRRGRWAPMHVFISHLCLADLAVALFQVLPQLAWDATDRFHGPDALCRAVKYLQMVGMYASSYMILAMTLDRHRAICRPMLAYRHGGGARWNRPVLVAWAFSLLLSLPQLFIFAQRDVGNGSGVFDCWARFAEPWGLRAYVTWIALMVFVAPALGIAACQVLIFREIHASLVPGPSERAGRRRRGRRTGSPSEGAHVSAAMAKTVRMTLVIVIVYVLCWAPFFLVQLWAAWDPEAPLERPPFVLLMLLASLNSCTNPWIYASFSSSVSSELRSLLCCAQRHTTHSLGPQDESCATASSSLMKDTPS
# Protocol: as §1
# Food and water are removed from male rats approximately 18 hours prior to testing. Animals are housed 4 per metabolism cage. At 0 hour, the test compound is administered intraperitoneally to the test group and an equivalent volume of vehicle is administered to both control groups (fasted and non-fasted). Urine volume and osmolality are measured every hour for 4 hours. Test values are recorded as ml of urine excreted (cumulative), mEq/rat electrolyte excreted, mg/rat urea excreted, and osmolality in milli-Osmoles/kg H2 O. A […] is used to determine significance. ED300 is defined as the dose of compound (μg/kg) required to lower urine osmolality to 300 m-Osmoles/kg. ED500 is defined as the dose of compound (μg/kg) required to lower urine osmolality to 500 m-Osmoles/kg. The hydropenic monkey protocol is similar.
# [4] = biological target: vasopressin stimulated adenylate cyclase activity; experiment: Assay of adenylate cyclase activity, kidney medullary membrane; format: biochemical; details: pig kidney medullary membrane, read-out: anti-ADH activity in vitro (Pig) Ki
# Protocol: as §1
# Test Procedure for Assay of Adenylate Cyclase Activity:
# In each experiment the amount of ^32 P/cAMP formed in the absence of medullary membrane is determined (blank). The blank value is subtracted from all experimental data. The compound is tested for its effect on basal adenylate cyclase activity and/or on vasopressin stimulated activity. Each determination is carried out in triplicate. The Ka value is derived from a Lineweaver-Burke plot. Rel. Vmax =(Vmax drug/Vmax vasopressin)×100. Ki =I/[(Ka'/Ka)-1] where I is the concentration of the antagonist, and Ka' and Ka are the concentrations of vasopressin required to give half-maximal activity of adenylate cyclase in the presence and absence of antagonist, respectively.
# [5] = system: vasopressin receptors (V2 -receptors); experiment: Conscious hydropenic squirrel monkey test (anti-ADH activity); format: in vivo
# Protocol: Food and water are removed from male rats approximately 18 hours prior to testing. Animals are housed 4 per metabolism cage. At 0 hour, the test compound is administered intraperitoneally to the test group and an equivalent volume of vehicle is administered to both control groups (fasted and non-fasted). Urine volume and osmolality are measured every hour for 4 hours. Test values are recorded as ml of urine excreted (cumulative), mEq/rat electrolyte excreted, mg/rat urea excreted, and osmolality in milli-Osmoles/kg H2 O. A tolerance test is used to determine significance. […] The hydropenic monkey protocol is similar.
# [6] = compared with the respective parent compound; cited from earlier work
# [7] = agonist series; cited from earlier work
# [8] = reported by Barth; cited from earlier work
# [9] = reported by Barth; cited from earlier work; remark: listed apart in the source
molecule,measurement,setting,value
"CCOc1ccc(C[C@H]2NC(=O)CC3(CCCCC3)SSC[C@@H](C(=O)N3CCC[C@H]3C(=O)N[C@@H](CCCNC(=N)N)C(N)=O)NC(=O)[C@H](CC(N)=O)NC(=O)[C@H](C(C)C)NC(=O)[C@H](Cc3ccccc3)NC2=O)cc1 [Compound 5, [1-(β-mercapto-β,β-cyclopentamethylenepropionicacid)-2-(O-ethyl-D-tyrosine)-4-valine-8-arginine-9-desglycine]vasopressin] ([dY](Et)FVNCPR-NH2; linker N-5 via X1)",Kb,[1],7.8 nM
same,Kb,[2],3.98 nM
same,"pA2, inhibition of vasopressin-induced vasoconstriction",[2]; in vivo,7.71
"CC(C)[C@@H]1NC(=O)[C@H](Cc2ccccc2)NC(=O)[C@@H](Cc2ccc(O)cc2)NC(=O)CC2(CCCCC2)SSC[C@@H](C(=O)N2CCC[C@H]2C(=O)N[C@@H](CCCNC(=N)N)C(N)=O)NC(=O)[C@H](CC(N)=O)NC1=O [Compound 2, [1-(β-mercapto-β,β-cyclopentamethylenepropionic acid)-2-D-tyrosine-4-valine-8-arginine-9-desglycine]vasopressin] ([dY]FVNCPR-NH2; linker N-5 via X1)",Kb,[1],65 nM
"CC(C)[C@@H]1NC(=O)[C@H](Cc2ccccc2)NC(=O)[C@@H](Cc2ccc(O)cc2)NC(=O)CC2(CCCCC2)SSC[C@@H](C(=O)N2CCC[C@H]2C(=O)N[C@@H](CCCNC(=N)N)C(=O)O)NC(=O)[C@H](CC(N)=O)NC1=O [Compound 3, [1-(β-mercapto-β,β-cyclopentamethylenepropionic acid)-2-D-tyrosine-4-valine-8-arginine-9-desglycinamide]vasopressin] ([dY]FVNCPR-OH; linker N-5 via X1)",Kb,[1],350 nM
CCOc1ccc(C[C@H]2NC(=O)CC3(CCCCC3)SSC[C@@H](C(=O)N3CCC[C@H]3C(=O)N[C@@H](CCCNC(=N)N)C(=O)NCC(N)=O)NC(=O)[C@H](CC(N)=O)NC(=O)[C@H](C(C)C)NC(=O)[C@H](Cc3ccccc3)NC2=O)cc1 [Compound 4] ([dY](Et)FVNCPRG-NH2; linker N-5 via X1),anti-ADH activity in vivo (Rat) ED300,[3],9.9 µg/kg
same,Ki,[4],5.9 nM
same,"ED300, dose required to decrease urine osmolality to 300M Osm/kg water",[5],33.1 nmol/kg
"desglycine^9 -oxytocin (CYIQNCPL; disulfide 1-6 (inferred); ends not checked; UniProt P01178 20-28, looked up, variant G9*) [literature agonist analog, B. Berde et al]",activity of the parent compound retained,[6],little
same,effect on blood pressure compared with oxytocin,[7],opposite effect
CCCNC(=O)[C@H](CCCNC(=N)N)NC(=O)[C@@H]1CCCN1C(=O)[C@@H]1CSSC2(CCCCC2)CC(=O)N[C@H](CC(C)C)C(=O)N[C@@H](Cc2ccccc2)C(=O)N[C@@H](C(C)C)C(=O)N[C@@H](CC(N)=O)C(=O)N1 [Example 4] ([dL]FVNCPR-NHPr; linker N-5 via X1),inhibition at 10 µM,"[1]; at 10^-5 M, read-out: Kbind, inhibition",12.1%
CC(C)[C@@H]1NC(=O)[C@H](Cc2ccccc2)NC(=O)[C@@H](Cc2ccc(O)cc2)NC(=O)CC2(CCCCC2)SSC[C@@H](C(=O)N2CCC[C@H]2C(=O)N[C@@H](CCCNC(=N)N)C(=O)NCC(N)=O)NC(=O)[C@H](CC(N)=O)NC1=O [Compound 1] ([dY]FVNCPRG-NH2; linker N-5 via X1),anti-ADH activity in vivo (Rat) ED300,[3],32 µg/kg
same,Ki,[4],30 nM
CCOc1ccc(C[C@H]2NC(=O)CC3(CCCCC3)SSC[C@@H](C(=O)N3CCC[C@H]3C(=O)N[C@@H](CCCNC(=N)N)C(N)=O)NC(=O)[C@H](CC(N)=O)NC(=O)[C@H](CC)NC(=O)[C@H](Cc3ccccc3)NC2=O)cc1 [Compound 6] ([dY](Et)F[Abu]NCPR-NH2; linker N-5 via X1),Kb,[1],18 nM
des-lysine^8 -desglycinamide^9 -vasopressin,activity of the parent compound retained,[6],little
des-glycinamide^9 -vasopressin,activity of the parent compound retained,[6],little
same,antidiuretic or uterotonic activity,[8],practically no
same,CNS activity,[9],has CNS activity
